In PubChem BioAssay AID449764 (Southern Research Specialized Biocontainment Screening …, 2010):

Test system: Mycobacterium tuberculosis H37Rv growth inhibition, no glycerol
Assay: Confirmatory growth inhibition assay, Mycobacterium tuberculosis H37Rv, absence of glycerol (AID 449764);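 also: growth read after 7 days of incubation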
Details: for IC90: measured here: IC90 growth inhibition

Row | Structure (SMILES) | IC50 | IC90
1 | O=C(Nc1ccc(Cl)cc1)N1CCN(c2ccc3nnc(-c4ccc(F)cc4)n3n2)CC1 | 18.9 µM | 51.8 µM
2 | C=CCOc1ccc(C2C(C#N)=C(N)N(Nc3ccccc3)C3=C2C(=O)CC(C)(C)C3)cc1OC (stereo unspecified) | 41.3 µM | > 100 µM
3 | CSC(=S)NCc1cccnc1 | 29.1 µM | 41.9 µM
4 | O=C(Nc1ccccc1)C1=C[C@@H](C2CCCCC2)C[C@@H](OCc2ccc(CO)cc2)O1 | 36 µM | 47.6 µM
5 | CN(C(=S)NC(=O)c1ccc(Cl)cc1)C1CCCCC1 | 9.46 µM | 14.7 µM
6 | OCCCNc1cc(-c2ccnc(Nc3cccc(Cl)c3)n2)ccn1 | 73.3 µM | 96 µM
7 | CC(C)(C)c1ccc(C(=O)CSc2n[nH]c(=O)[nH]c2=O)cc1 | 16.4 µM | 28.6 µM
8 | Cc1ccccc1-n1sc2cc(F)ccc2c1=O | 22 µM | 24.6 µM
9 | Cc1ncsc1CCOC(=O)c1ccc([N+](=O)[O-])cc1 | 20.1 µM | 37.2 µM
10 | COc1cccc(CC2(CO)CCCN(Cc3[nH]c4ccc(C)cc4c3C)C2)c1 (stereo unspecified) | 40.8 µM | 55.8 µM
11 | Cc1cc(-c2n[nH]c(=S)n2/N=C/C(Br)=C/c2ccccc2)n[nH]1 | 5.55 µM | 8.35 µM
12 | CCCC(/C=C/c1ccc(OC(C)=O)cc1)=C1/c2ccccc2C(=O)N1c1ccccc1 | 13.2 µM | 20.9 µM
13 | O=c1c2c(nc3nc(NCc4ccc(Cl)cc4)[nH]n13)CCC2 | 9.12 µM | 14.3 µM
14 | CCCCCC1CC(CC(=O)NC(=S)Nc2ccc([N+](=O)[O-])cc2)C(=O)O1 (stereo unspecified) | – | > 100 µM
15 | CN1CCN(CC(=O)N2CCn3c4c(c5cc(C6CCCCC6)ccc53)CCCC42)CC1 (stereo unspecified) | 18 µM | 21.6 µM
16 | Cc1ccc(C)c(N/C(N)=N/c2nc(C)cc(C)n2)c1 | 7.67 µM | 12.7 µM
17 | CC(C)(C)NC(=O)COC(=O)c1cc(Br)ccc1Cl | 24.3 µM | 45.4 µM
18 | Cc1ccc2c(c1)c1c3n2CCN=C3CCC1 | 10.5 µM | 16 µM
19 | CCCCCCCCCCCCCCCC[N+](C)(C)CC | 36.1 µM | 48.4 µM
20 | Clc1ccc(SCc2cc(N3CCOCC3)nc(-c3ccccn3)n2)cc1 | 6.68 µM | 11.6 µM
21 | COc1ccc(C2=CC(c3c(C)nn(-c4ccccc4)c3Cl)n3nnnc3N2)cc1OC (stereo unspecified) | 94.1 µM | > 100 µM
22 | Cc1cccc(CNc2ncnc3ccc(-c4ccc5c(c4)OCCO5)cc23)c1 | 10.1 µM | 12.7 µM

Row | Structure (SMILES) | IC50 | IC90
23 | Cc1oc2c(c1C(=O)NCc1cccnc1)C(=O)c1ccccc1C2=O | 12.3 µM | 14.2 µM
24 | COC(=O)c1c(NC(=O)CC2SC(N)=NC2=O)sc2c1CCC(C(C)(C)C)C2 (stereo unspecified) | 40.2 µM | 64.4 µM
25 | CCOC(=O)c1cc(-c2ccc(N3CCOCC3)cc2)nn1-c1ccccc1 | 27.9 µM | 58.1 µM
26 | COc1ccc(-c2cc(-c3ccc(OC)cc3)[nH]n2)cc1 | – | > 50 µM
27 | Cc1ccn2c(NC3CCCCC3)c(-c3cccc(-c4cccc(Cl)c4)c3)nc2c1 | 26.4 µM | 36.3 µM
28 | COc1ccc(-n2cc(CNCCc3cscn3)c(-c3ccccc3Cl)n2)cc1 | 27.8 µM | 35.9 µM
29 | CC1(C)Cc2c(cnn2-c2ccccc2)-c2c1c1ccccc1n2CC(O)CCl (stereo unspecified) | 95.4 µM | > 100 µM
30 | Cc1ccc2nc(N/N=C/c3ccccc3C#N)nc(-c3ccccc3)c2c1 | 91.1 µM | > 100 µM
31 | Nc1ccc2cc(Br)ccc2c1 | 54.1 µM | 81.6 µM
32 | CSC1=NC(C)(C)C=C(/C=C/c2ccc(Cl)cc2)N1 | 38.3 µM | 56.7 µM
33 | Cc1ccn2c(-c3csc(NCc4ccccc4)n3)c(C)nc2c1 | 45.5 µM | 51.5 µM
34 | CCCCOc1ccc(C(=O)Oc2ccc(C)nc2)cc1 | 54.8 µM | 78.8 µM
35 | Cc1nc(SCC(=O)NC2CCCCC2)[nH]c(=O)c1C | < 0.2 µM | 0.57 µM
36 | CCOC(=O)c1cc(-c2csc(Nc3c(C)cc(C)cc3C)n2)on1 | 1.09 µM | 1.62 µM
37 | N#Cc1c(SCC(N)=O)nsc1SCc1ccccc1Cl | 45.8 µM | > 100 µM
38 | COc1ccc(C(=O)/C=C/Sc2nc3ccccc3o2)cc1 | 90.8 µM | > 100 µM
39 | Cc1ccccc1Nc1nc(N)nc(COC(=O)c2ccc([N+](=O)[O-])o2)n1 | 88.7 µM | > 100 µM
40 | CNC[C@H](Cc1cccc2ccccc12)NC[C@H](CCSC)NCC1CCC(C(C)(C)C)CC1 (stereo partly specified) | 42.6 µM | 47.1 µM
41 | O=C(c1ccc(Cl)cc1)N1N=C(c2ccccn2)CC1(O)C(F)(F)F (stereo unspecified) | 25.7 µM | > 100 µM
42 | Nc1c(N(CCC2=CCCCC2)C(=O)c2ccc([N+](=O)[O-])o2)c(=O)[nH]c(=O)n1Cc1ccccc1 | 27.9 µM | 48.2 µM
43 | COC(=O)c1c(NC(=O)CCl)sc(C(=O)N2CCOCC2)c1C | 10 µM | 23.1 µM
44 | Cc1cc2c(cc1C)/C(=N/NC(=O)c1ccccn1)CCC2 | 24.2 µM | 53.6 µM

Row | Structure (SMILES) | IC50 | IC90
45 | O=C1CCc2ccc(OCCCCN3CCN(c4cccc(Cl)c4Cl)CC3)cc2N1 | 33.3 µM | > 100 µM
46 | O=C(Nc1ccc(Cl)cc1)N(C1=NCCC1)c1ccc(OC(F)F)cc1 | 64.7 µM | > 100 µM
47 | COc1ccc(-c2nc(NC(=O)Cn3ccc(C(F)(F)F)n3)sc2C)cc1 | 44.6 µM | 50.4 µM
48 | CCCCOc1ccc(C(=O)N/N=C/c2ccc(OCCN3CCCCC3)c(OC)c2)cc1 | 43.3 µM | 47.8 µM
49 | COc1nc(-c2ccccc2)cc(-c2ccc(OC)c(OC)c2)n1 | 86.4 µM | > 100 µM
50 | c1ccc(/N=C2\N=C(Nc3ccccn3)c3ccccc32)nc1 | 2.05 µM | 3.02 µM
51 | COc1ccc(/C=N/Nc2cc(C)nc3ccc(OC)cc23)c(OC)c1 | 16.3 µM | 19.7 µM
52 | Brc1ccc2c(c1)C(OC1CN3CCC1CC3)c1ccccc1CS2 (stereo unspecified) | 26.3 µM | 36.4 µM
53 | C[C@]12C=CC(=O)C=C1CC[C@@H]1C2=CC[C@]2(C)[C@@H](C(=O)CN3CCN(c4cc(N5CCCC5)nc(N5CCCC5)n4)CC3)CC[C@@H]12 | 38.5 µM | 55.9 µM
54 | CCOC(=O)c1ccc(NC(=O)Cn2ncc(Cl)c(Cl)c2=O)cc1 | < 0.2 µM | 2.19 µM
55 | CCc1nc(N2CCN(C(C)=O)CC2)c2c3c(sc2n1)CC(C(C)(C)C)CC3 (stereo unspecified) | 17.9 µM | 21.5 µM
56 | COC(=O)CSc1ncnc2c1cnn2-c1ccc(C)cc1C | 6.02 µM | 6.82 µM
57 | Cc1oc(-c2cccc(Cl)c2)nc1CN1CCC(C(=O)N2CCN(c3ccccc3F)CC2)CC1 | 18.7 µM | 26.4 µM
58 | O=C(NC1CCCCC1)C(c1cccs1)N(CCCN1CCOCC1)C(=O)c1ccc(-c2ccccc2)[nH]1 (stereo unspecified) | 51.3 µM | 86.4 µM
59 | OC(CNCC(c1ccc(Cl)cc1Cl)c1c[nH]c2ccccc12)c1ccccc1 (stereo unspecified) | 22.9 µM | 26.2 µM
60 | Cc1cccc(C(=O)OCC(=O)N2CCc3ccccc3C2)c1O | 24.8 µM | > 25 µM
61 | CCOC(=O)C1CCN(CC(O)COc2ccc(C(C)(C)CC)cc2)CC1 (stereo unspecified) | 23.2 µM | 26.5 µM
62 | O=C(Nc1ccc(OCC(F)(F)C(F)F)c(C(F)(F)F)c1)c1ccc(Cl)cc1 | 33.2 µM | 46.9 µM
63 | O=C(CCc1c[nH]c2ccccc12)N1CCN(S(=O)(=O)c2ccccc2)CC1 | 78.7 µM | > 100 µM
64 | NC(=S)N/N=C/c1ccc(-c2ccccc2)o1 | 44 µM | 90.7 µM
